From article PMC3920478, “Small molecule-mediated refolding and activation of myosin motor function” (eLife, 2014)
Where “and” joins values, the source holds several entries; their conditions need not be identical. Equal entries are not always repeated.

What was measured:
β-cardiac myosin [1] = biological target: T1, β-cardiac myosin (Sus scrofa, UniProt P79293); experiment: Transient kinetics (stopped-flow) of the ATPase cycle; format: biochemical, Porcine; set-up: β-Cardiac myosin-2 (S1, full-length); from tissue; host or cells: porcine cardiac muscle
Description: To gain a better understanding of its mechanism of action, we examined the effect of EMD 57033-binding on the kinetic activity of the myosin motor. […] Fast mixing of excess ATP with β-cardiac myosin results in an increase of the protein’s intrinsic tryptophan fluorescence. The kinetic model predicts the double exponential ‘behavior’ of the observed transients to be associated with two discrete processes (Figure 3C). The fast process corresponds to the binding of ATP to the active site. The rate of the slow process saturates at ATP concentrations above 100 µM and can be attributed to the ATP hydrolysis step ([Deacon et al., 2012]). […] Phosphate release is the rate-limiting step of the β-cardiac myosin actin-activated ATPase cycle. It can be monitored by the fluorescence increase that is associated with the much faster binding of phosphate to the A197C mutant of Escherichia coli phosphate binding protein, labeled at Cys197 with the thiol reactive coumarin dye MDCC ([Brune et al., 1994]) (Figure 3F). […] The resulting values for k+4 indicate a 1.7-fold increase in the presence of the small compound.
Stopped-flow experiments were performed using PiStar (Applied Photophysics, Leatherhead, UK) and Hi-Tech SF61 (TgK Scientific Limited, Bradford on Avon, UK) spectrophotometers at 20°C as described previously ([Taft et al., 2008]). Mant-nucleotides (Jena Bioscience, Germany) were excited at 365 nm and detected after passing through a KV 389 nm cut-off filter. Tryptophane fluorescence was excited at 297 nm and detected using a WG 320 nm cut-off filter. Long-time experiments were carried out using a shutter to avoid photo-bleaching. […] Phosphate release was measured using MDCC-PBP (N-[2-(1-maleimidyl)ethyl]-7-(diethylamino)coumarin-3-carboxamide fused to phosphate binding protein; obtained from Life Technologies, Carlsbad, CA) as described previously ([Brune et al., 1994]). Coumarin fluorescence was excited at 430 nm and detected using 455 nm cut-off-filter.
Target sequence in this assay (P79293 whole entry): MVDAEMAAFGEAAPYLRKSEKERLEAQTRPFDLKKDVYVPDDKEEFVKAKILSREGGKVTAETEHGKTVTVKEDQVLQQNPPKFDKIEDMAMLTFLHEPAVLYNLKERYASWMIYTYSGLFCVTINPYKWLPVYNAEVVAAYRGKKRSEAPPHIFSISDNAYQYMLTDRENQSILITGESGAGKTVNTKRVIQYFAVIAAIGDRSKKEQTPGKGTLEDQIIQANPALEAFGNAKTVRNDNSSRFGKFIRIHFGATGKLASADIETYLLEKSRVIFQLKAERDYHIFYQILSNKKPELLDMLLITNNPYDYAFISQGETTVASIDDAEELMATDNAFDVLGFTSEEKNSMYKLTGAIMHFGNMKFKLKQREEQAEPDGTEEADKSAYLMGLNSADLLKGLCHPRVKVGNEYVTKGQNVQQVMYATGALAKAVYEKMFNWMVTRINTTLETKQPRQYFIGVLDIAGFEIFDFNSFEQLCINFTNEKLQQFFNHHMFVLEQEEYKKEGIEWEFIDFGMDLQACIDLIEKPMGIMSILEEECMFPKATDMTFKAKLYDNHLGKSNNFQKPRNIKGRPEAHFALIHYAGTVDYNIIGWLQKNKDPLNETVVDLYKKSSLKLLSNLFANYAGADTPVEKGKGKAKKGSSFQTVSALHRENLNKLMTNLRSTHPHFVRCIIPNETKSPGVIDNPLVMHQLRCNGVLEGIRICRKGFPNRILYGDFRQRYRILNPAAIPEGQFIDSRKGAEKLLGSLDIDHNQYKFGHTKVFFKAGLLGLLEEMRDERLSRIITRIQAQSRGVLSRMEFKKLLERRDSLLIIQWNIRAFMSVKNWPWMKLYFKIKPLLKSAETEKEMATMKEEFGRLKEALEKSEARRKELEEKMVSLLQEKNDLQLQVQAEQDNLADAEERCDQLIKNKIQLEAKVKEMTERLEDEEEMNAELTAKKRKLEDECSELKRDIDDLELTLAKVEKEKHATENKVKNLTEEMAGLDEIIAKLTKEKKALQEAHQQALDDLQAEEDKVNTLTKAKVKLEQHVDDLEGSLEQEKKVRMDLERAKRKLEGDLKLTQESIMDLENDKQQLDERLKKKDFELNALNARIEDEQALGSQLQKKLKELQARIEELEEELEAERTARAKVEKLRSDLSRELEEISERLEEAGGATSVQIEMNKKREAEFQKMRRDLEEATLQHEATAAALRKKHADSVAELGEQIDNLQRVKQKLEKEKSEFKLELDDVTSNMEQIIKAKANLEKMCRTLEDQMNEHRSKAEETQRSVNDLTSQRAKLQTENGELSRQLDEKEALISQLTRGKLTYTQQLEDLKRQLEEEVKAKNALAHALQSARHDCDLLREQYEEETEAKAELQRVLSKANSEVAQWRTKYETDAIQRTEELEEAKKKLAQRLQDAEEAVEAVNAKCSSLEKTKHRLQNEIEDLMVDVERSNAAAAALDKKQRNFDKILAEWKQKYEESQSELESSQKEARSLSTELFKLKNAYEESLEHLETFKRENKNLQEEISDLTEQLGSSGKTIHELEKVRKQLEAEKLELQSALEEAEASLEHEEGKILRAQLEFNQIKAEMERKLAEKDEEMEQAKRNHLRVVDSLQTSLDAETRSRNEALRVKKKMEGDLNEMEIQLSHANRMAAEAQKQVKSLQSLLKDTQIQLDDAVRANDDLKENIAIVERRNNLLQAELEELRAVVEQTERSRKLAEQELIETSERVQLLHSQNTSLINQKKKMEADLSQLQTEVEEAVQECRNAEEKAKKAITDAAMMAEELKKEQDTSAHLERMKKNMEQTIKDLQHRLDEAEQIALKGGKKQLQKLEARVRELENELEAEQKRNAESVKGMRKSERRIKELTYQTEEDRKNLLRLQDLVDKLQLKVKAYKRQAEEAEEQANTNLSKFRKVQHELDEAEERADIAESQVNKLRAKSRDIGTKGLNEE

Dd myosin-2 ΔSH3 = biological target: T2, Dd myosin-2 ΔSH3 (Dictyostelium discoideum, UniProt P08799, DEL33-79); experiment: In vitro motility assay (actin filament sliding); format: biochemical; conditions: 100 µM EMD 57033
T2 construct: Dd myosin-2 ΔSH3, a recombinant motor domain construct that lacks this subdomain; made in house
T2 sequence (P08799 other isoform, or with tags, fused parts or gaps DEL33-79): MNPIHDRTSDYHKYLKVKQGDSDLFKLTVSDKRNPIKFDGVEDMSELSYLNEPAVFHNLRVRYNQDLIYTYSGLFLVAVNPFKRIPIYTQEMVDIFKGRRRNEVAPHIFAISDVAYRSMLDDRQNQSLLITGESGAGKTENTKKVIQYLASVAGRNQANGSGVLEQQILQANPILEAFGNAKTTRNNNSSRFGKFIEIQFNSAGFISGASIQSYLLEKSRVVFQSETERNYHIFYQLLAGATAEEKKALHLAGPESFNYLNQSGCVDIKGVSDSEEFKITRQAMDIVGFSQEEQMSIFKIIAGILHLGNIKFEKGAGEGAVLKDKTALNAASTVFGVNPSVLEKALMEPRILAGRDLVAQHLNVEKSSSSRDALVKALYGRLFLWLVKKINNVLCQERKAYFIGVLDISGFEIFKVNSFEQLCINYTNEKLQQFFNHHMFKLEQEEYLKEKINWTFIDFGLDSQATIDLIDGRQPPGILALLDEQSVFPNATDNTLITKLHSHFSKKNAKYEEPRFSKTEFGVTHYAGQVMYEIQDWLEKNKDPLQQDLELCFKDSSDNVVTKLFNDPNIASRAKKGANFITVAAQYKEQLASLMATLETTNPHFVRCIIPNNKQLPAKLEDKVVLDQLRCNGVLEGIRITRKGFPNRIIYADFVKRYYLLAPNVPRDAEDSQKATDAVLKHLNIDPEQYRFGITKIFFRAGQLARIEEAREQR
Description: Initial blind docking to homology models of the β-cardiac myosin motor domain in the post-rigor state indicated preferred binding of the drug to a region near the small N-terminal, SH3-like βbarrel subdomain. Important contacts are predicted to involve the SH3-like subdomain (residues 34–72) and two α-helices (residues 20–28 and 98–111). […] The sets of binding poses differ mainly in the orientation of the dimethylated catechol group, occupying either of the two possible branches of the Y, while the thiadiazinone moiety appears little affected and resides in the root of the Y shaped cavity (Figure 2A,B). Potential residues involved in the binding of the thiadiazinone and tetrahydroquinoline moieties of the compound include Arg23, Asp85, Lys86, Asp107, Arg108, and Ser111. The dimethylated catechol moiety is mainly bound by residues Lys34, Lys48, and Gln79, and thus, interacts with the SH3-like β-barrel.
Actin-sliding motility was performed at 20°C using an Olympus IX81 (Olympus, Hamburg, Germany) inverted fluorescence microscope as described previously ([Fujita-Becker et al., 2005]). Average sliding velocities were determined from the Gaussian distribution of automatically tracked actin filaments using DiaTrack 3.01 (Semasopht, Chavannes, Switzerland) and Origin 7.0 (OriginLab Corporation, Northampton, MA). Errors indicate standard deviations.

β-cardiac myosin [2] = biological target: T1, β-cardiac myosin; experiment: Steady-state basal and actin-activated Mg2+-ATPase (NADH-coupled assay); format: biochemical, Porcine
Target sequence in this assay (P79293 1-810 limits assumed): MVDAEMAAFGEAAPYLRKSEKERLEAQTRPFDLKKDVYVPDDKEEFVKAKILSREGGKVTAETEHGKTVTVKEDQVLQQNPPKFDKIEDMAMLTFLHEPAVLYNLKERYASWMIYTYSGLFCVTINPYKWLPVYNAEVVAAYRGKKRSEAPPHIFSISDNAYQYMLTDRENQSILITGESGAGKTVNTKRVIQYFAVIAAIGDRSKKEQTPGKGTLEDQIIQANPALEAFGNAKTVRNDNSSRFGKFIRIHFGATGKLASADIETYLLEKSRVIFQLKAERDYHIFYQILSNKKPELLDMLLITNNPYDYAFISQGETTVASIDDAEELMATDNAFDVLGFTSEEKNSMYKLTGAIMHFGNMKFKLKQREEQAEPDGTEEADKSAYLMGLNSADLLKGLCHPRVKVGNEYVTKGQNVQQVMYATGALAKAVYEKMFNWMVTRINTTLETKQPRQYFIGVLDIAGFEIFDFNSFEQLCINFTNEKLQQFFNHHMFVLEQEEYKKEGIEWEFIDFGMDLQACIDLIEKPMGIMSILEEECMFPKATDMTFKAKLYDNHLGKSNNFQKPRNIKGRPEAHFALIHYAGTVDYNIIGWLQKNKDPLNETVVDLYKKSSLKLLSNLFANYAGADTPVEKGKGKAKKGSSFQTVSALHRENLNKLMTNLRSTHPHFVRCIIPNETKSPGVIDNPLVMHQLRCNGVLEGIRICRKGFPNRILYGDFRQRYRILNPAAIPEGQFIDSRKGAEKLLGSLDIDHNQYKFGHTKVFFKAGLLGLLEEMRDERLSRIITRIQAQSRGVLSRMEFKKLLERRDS

[3] = biological target: T3, β-cardiac myosin motor domain (Sus scrofa, UniProt P79293); experiment: Melting temperature by circular dichroism at 222 nm; set-up: species or system Porcine; conditions: nucleotide-free, low salt, 100 µM (saturating) EMD 57033
T3 construct: Melting curves of the β-cardiac myosin motor domain as determined by circular dichroism spectroscopy at 222 nm; from tissue; host or cells: porcine cardiac muscle
T3 sequence (P79293 1-843 limits assumed): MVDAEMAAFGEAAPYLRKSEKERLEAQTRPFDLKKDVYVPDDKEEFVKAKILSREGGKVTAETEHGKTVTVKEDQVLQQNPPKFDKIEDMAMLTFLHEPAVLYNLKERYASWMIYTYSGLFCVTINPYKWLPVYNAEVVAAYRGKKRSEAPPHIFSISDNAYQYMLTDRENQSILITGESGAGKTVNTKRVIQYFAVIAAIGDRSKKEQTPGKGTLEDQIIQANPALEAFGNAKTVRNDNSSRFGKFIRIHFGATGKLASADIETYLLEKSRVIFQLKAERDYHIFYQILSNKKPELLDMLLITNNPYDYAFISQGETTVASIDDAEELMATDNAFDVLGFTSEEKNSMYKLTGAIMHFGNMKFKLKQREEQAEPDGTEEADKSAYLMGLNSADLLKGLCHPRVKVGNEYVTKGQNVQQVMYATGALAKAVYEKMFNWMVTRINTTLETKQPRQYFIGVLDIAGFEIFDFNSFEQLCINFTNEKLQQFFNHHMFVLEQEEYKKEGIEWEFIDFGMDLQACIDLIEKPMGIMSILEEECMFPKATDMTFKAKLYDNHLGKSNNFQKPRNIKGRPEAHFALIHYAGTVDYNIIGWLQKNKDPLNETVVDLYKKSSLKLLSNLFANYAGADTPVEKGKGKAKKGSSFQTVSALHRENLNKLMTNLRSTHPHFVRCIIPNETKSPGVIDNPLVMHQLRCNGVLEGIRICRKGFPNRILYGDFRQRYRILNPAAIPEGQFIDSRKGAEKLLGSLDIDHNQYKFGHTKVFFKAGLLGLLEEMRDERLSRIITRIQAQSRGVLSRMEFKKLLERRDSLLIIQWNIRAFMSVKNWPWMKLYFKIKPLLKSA
Description: Circular dichroism and differential static light scattering experiments were performed to determine Tm.
Protein solutions were diluted to a concentration of 0.3 mg/ml in a buffer containing 5 mM KPi pH 7.5, 15 mM KCl. Denaturation of β-cardiac myosin was measured by monitoring the temperature-dependent changes of ellipticity at 222 nm in a temperature controlled π*-180 Spectrometer equipped with a circular dichroism unit (Applied Photophysics, Leatherhead, UK). Measurements were performed in a 0.3-cm path length Quartz cuvette with a temperature gradient of 1°C min^−1. The transition midpoint of the unfolding reaction was calculated by fitting a Boltzmann function to the experimental data. Prior to measurements, the storage buffer of β-cardiac myosin that contains DTT and sucrose were exchanged using PD MiniTrap G-25 (GE Healthcare, Little Chalfont, UK) size exclusion columns equilibrated with CD Buffer (5 mM KPi pH 7.5, 15 mM KCl).

COc1ccc(C(=O)N2CCCc3cc(C4=NNC(=O)SC4C)ccc32)cc1OC (stereo not shown) [EMD 57033]
Effect on ADP-release step (k−D, k−AD) (β-cardiac myosin [1]): appears unaffected | k+4 (phosphate release) (β-cardiac myosin [1]; 25 µM EMD 57033, F-Actin 25 µM and 25 µM ATP, MDCC-PBP): 0.15 ± 0.01 s⁻¹ | k+2 ∼Change (−fold), increase (β-cardiac myosin [1]; 25 µM EMD 57033 vs control): 3.8 fold | k+4 ∼Change (−fold), increase (β-cardiac myosin [1]; EMD 57033 vs control): 1.7 fold | Net change in the rate of ATP turnover, single-turnover mantATP experiment (β-cardiac myosin [1]; actin-activated β-cardiac myosin, 25 µM EMD 57033): approximately twofold net increase | k+2 (conformational change after ATP binding) (β-cardiac myosin [1]; in presence of 25 µM EMD 57033): 174 ± 7 s⁻¹ | k+3 + k−3 (rate of ATP hydrolysis) (β-cardiac myosin [1]; in presence of 25 µM EMD 57033): 24.5 ± 1.9 s⁻¹ | k−AD (ADP release, with actin) (β-cardiac myosin [1]; in presence of 25 µM EMD 57033): 26.9 ± 4 s⁻¹ | k−D (ADP release) (β-cardiac myosin [1]; in presence of 25 µM EMD 57033): 0.16 ± 0.04 s⁻¹ | Actin filament sliding velocity enhancement (Dd myosin-2 ΔSH3): no actin filament sliding velocity enhancement was observed | Ea ∼Change (−fold), reduction (β-cardiac myosin [2]; EMD 57033 vs control): 1.5 fold | Ea (Arrhenius activation energy of ATP turnover) (β-cardiac myosin [2]; in presence of EMD 57033, 25–45°C): 31 kJ/mol and 31 ± 3 kJ/mol | Tm (melting temperature) [3]: 53.6 ± 1.9 °C
